This is an account of results in patent publication US11066396B2 (priority 2016, dated 2021).

The target of the assay is HDAC1 (Homo sapiens (Human), UniProt Q13547). The following applies: read-out: HDAC1 IC50.
HDAC1, sequence (Q13547 whole entry): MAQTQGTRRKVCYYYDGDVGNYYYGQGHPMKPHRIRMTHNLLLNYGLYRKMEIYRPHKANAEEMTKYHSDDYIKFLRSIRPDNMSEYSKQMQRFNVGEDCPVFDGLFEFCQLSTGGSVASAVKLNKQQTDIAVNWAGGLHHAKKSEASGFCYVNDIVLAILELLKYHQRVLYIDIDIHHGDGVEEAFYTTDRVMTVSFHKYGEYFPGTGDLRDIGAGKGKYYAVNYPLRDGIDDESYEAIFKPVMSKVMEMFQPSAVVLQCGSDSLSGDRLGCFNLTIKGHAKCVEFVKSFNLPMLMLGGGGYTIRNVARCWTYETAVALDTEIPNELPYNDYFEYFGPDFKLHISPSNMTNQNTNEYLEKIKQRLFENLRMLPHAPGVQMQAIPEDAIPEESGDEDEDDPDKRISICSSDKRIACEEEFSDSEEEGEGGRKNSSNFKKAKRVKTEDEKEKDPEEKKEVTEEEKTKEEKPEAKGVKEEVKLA
In the case of `O=C1Nc2ccc(F)cc2C1Cc1ccc(-c2noc(C(F)(F)F)n2)cc1` (racemic) [Example 193, 5-fluoro-3-{4-[5-(trifluoromethyl)-1,2,4-oxadiazol-3-yl]benzyl}-1,3-dihydro-2H-indol-2-one], the IC50 (commonly the concentration that inhibits the measured activity by half) stood at 710 nM.
In the case of `O=C1CCC(c2ccc(-c3noc(C(F)(F)F)n3)cc2)N1c1cccc(F)c1` (racemic) [Example 325, 1-(3-fluorophenyl)-5-{4-[5-(trifluoromethyl)-1,2,4-oxadiazol-3-yl]phenyl}pyrrolidin-2-one] it was 2500 nM; in that of `Cc1ccc2c3c(nn2c1)CCC(NCc1ccc(-c2noc(C(F)(F)F)n2)cc1)C3` (racemic) [Example 352, 8-methyl-N-({4-[5-(trifluoromethyl)-1,2,4-oxadiazol-3-yl]phenyl}methyl)-1,2,3,4-tetrahydropyrido[1,2-b]indazol-2-amine], 44 nM.
In the case of `Cc1ccc2c3c(nn2c1)CCC(NCc1ccc(-c2noc(C(F)(F)F)n2)cc1)C3` (racemic) [Example 355, 8-methyl-N-({4-[5-(trifluoromethyl)-1,2,4-oxadiazol-3-yl]phenyl}methyl)-1,2,3,4-tetrahydropyrido[1,2-b]indazol-2-amine] it was 48 nM; in that of `Cc1noc([C@H]2CCCCN2c2ccc(-c3noc(C(F)(F)F)n3)c(Cl)c2)n1` [Example 18, (R)-3-(2-Chloro-4-(2-(3-methyl-1,2,4-oxadiazol-5-yl)piperidin-1-yl)phenyl)-5-(trifluoromethyl)-1,2,4-oxadiazole], above 15000 nM.
In the case of `O=C(NCc1ccc(-c2noc(C(F)(F)F)n2)cc1)c1cc(N2CCOCC2)ccn1` [Example 204, 4-morpholin-4-yl-N-{4-[5-(trifluoromethyl)-1,2,4-oxadiazol-3-yl]benzyl}pyridine-2-carboxamide] it was 1000 nM.
`O=C(NCc1ccc(-c2noc(C(F)(F)F)n2)cc1)c1cccc(O)c1` [Example 205, 3-hydroxy-N-{4-[5-(trifluoromethyl)-1,2,4-oxadiazol-3-yl]benzyl}benzamide]: the IC50 is 720 nM.
In the case of `CCn1cc(COc2cc(-c3noc(C(F)(F)F)n3)ccn2)c(C)n1` [Example 206, 2-[(1-ethyl-3-methyl-1H-pyrazol-4-yl)methoxy]-4-[5-(trifluoromethyl)-1,2,4-oxadiazol-3-yl]pyridine] it was 4200 nM; in that of `FC(F)(F)c1nc(-c2ccnc(OCc3c(Cl)nc4sccn34)c2)no1` [Example 208, 6-chloro-5-[({4-[5-(trifluoromethyl)-1,2,4-oxadiazol-3-yl]pyridin-2-yl}oxy)methyl]imidazo[2,1-b][1,3]thiazole], 3100 nM.
The same measure for `FC(F)(F)c1nc(-c2ccnc(OCc3cc4n(n3)CCCO4)c2)no1` [Example 210, 2-[({4-[5-(trifluoromethyl)-1,2,4-oxadiazol-3-yl]pyridin-2-yl}oxy)methyl]-6,7-dihydro-5H-pyrazolo[5,1-b][1,3]oxazine]: 1200 nM.
In the case of `Cc1cc(C)nc(COc2cc(-c3noc(C(F)(F)F)n3)ccn2)c1` [Example 211, 2,4-dimethyl-6-[({4-[5-(trifluoromethyl)-1,2,4-oxadiazol-3-yl]pyridin-2-yl}oxy)methyl]pyridine] it was 2500 nM.
In the case of `FC(F)(F)c1nc(-c2ccnc(OCc3ccnn3-c3cccnc3)c2)no1` [Example 212, 2-[(1-pyridin-3-yl-1H-pyrazol-5-yl)methoxy]-4-[5-(trifluoromethyl)-1,2,4-oxadiazol-3-yl]pyridine], the IC50 is 1900 nM.
In the case of `Cc1cnc(COc2cc(-c3noc(C(F)(F)F)n3)ccn2)cn1` [Example 213, 2-methyl-5-[({4-[5-(trifluoromethyl)-1,2,4-oxadiazol-3-yl]pyridin-2-yl}oxy)methyl]pyrazine] it was 1900 nM.
Take `FC(F)(F)c1nc(-c2ccnc(OCc3cnc(Cl)cn3)c2)no1` [Example 214, 2-chloro-5-[({4-[5-(trifluoromethyl)-1,2,4-oxadiazol-3-yl]pyridin-2-yl}oxy)methyl]pyrazine]: the IC50 came out at 1400 nM.
The same measure for `FC(F)(F)c1nc(-c2ccnc(OCc3cncc(Cl)n3)c2)no1` [Example 215, 2-chloro-6-[({4-[5-(trifluoromethyl)-1,2,4-oxadiazol-3-yl]pyridin-2-yl}oxy)methyl]pyrazine]: 1200 nM; for `FC(F)(F)c1nc(-c2ccnc(OCc3cncc(N4CCNCC4)n3)c2)no1` [Example 216, 2-piperazin-1-yl-6-[({4-[5-(trifluoromethyl)-1,2,4-oxadiazol-3-yl]pyridin-2-yl}oxy)methyl]pyrazine]: 1100 nM; for `FC(F)(F)c1nc(-c2ccnc(OCc3ncccc3Cl)c2)no1` [Example 217, 3-chloro-2-[({4-[5-(trifluoromethyl)-1,2,4-oxadiazol-3-yl]pyridin-2-yl}oxy)methyl]pyridine]: 3800 nM.
In the case of `FC(F)Cn1nc(COc2cc(-c3noc(C(F)(F)F)n3)ccn2)cc1C1CC1` [Example 218, 2-{[5-cyclopropyl-1-(2,2-difluoroethyl)-1H-pyrazol-3-yl]methoxy}-4-[5-(trifluoromethyl)-1,2,4-oxadiazol-3-yl]pyridine] it was 870 nM; in that of `FC(F)(F)Cn1nc(COc2cc(-c3noc(C(F)(F)F)n3)ccn2)cc1C1CC1` [Example 219, 2-{[5-cyclopropyl-1-(2,2,2-trifluoroethyl)-1H-pyrazol-3-yl]methoxy}-4-[5-(trifluoromethyl)-1,2,4-oxadiazol-3-yl]pyridine], 920 nM.
The same measure for `Cc1cc(COc2cc(-c3noc(C(F)(F)F)n3)ccn2)nn1CC(F)F` [Example 220, 2-{[1-(2,2-difluoroethyl)-5-methyl-1H-pyrazol-3-yl]methoxy}-4-[5-(trifluoromethyl)-1,2,4-oxadiazol-3-yl]pyridine]: 1200 nM; for `FC(F)(F)c1nc(-c2ccnc(OCc3ccn(C4CC4)n3)c2)no1` [Example 222, 2-[(1-cyclopropyl-1H-pyrazol-3-yl)methoxy]-4-[5-(trifluoromethyl)-1,2,4-oxadiazol-3-yl]pyridine]: 3500 nM; for `CC(C)n1ccc(COc2cc(-c3noc(C(F)(F)F)n3)ccn2)n1` [Example 223, 2-{[1-(1-methylethyl)-1H-pyrazol-3-yl]methoxy}-4-[5-(trifluoromethyl)-1,2,4-oxadiazol-3-yl]pyridine]: 2400 nM.
Take `Cn1nc(COc2cc(-c3noc(C(F)(F)F)n3)ccn2)cc1C(C)(C)C` [Example 224, 2-[(5-tert-butyl-1-methyl-1H-pyrazol-3-yl)methoxy]-4-[5-(trifluoromethyl)-1,2,4-oxadiazol-3-yl]pyridine]: the concentration for half-maximal inhibition (IC50) is 1200 nM.
As to `O=C1CCc2ccc(Br)cc2N1Cc1ccc(-c2noc(C(F)(F)F)n2)cc1` [Example 319, 7-bromo-1-{4-[5-(trifluoromethyl)-1,2,4-oxadiazol-3-yl]benzyl}-3,4-dihydroquinolin-2(1H)-one], the IC50 turned out to be 180 nM.
In the case of `O=c1ccc2ccc(F)cc2n1Cc1ccc(-c2noc(C(F)(F)F)n2)cc1` [Example 322, 7-fluoro-1-{4-[5-(trifluoromethyl)-1,2,4-oxadiazol-3-yl]benzyl}quinolin-2(1H)-one] it was 260 nM; in that of `O=C1CCc2ccc(F)cc2N1Cc1ccc(-c2noc(C(F)(F)F)n2)cn1` [Example 323, 7-fluoro-1-({5-[5-(trifluoromethyl)-1,2,4-oxadiazol-3-yl]pyridin-2-yl}methyl)-3,4-dihydroquinolin-2(1H)-one], 53 nM; in that of `O=C1CCc2ccccc2N1Cc1ccc(-c2noc(C(F)(F)F)n2)cn1` [Example 324, 1-({5-[5-(trifluoromethyl)-1,2,4-oxadiazol-3-yl]pyridin-2-yl}methyl)-3,4-dihydroquinolin-2(1H)-one], 150 nM.
In the case of `O=C1c2cc(F)ccc2CCN1Cc1ccc(-c2noc(C(F)(F)F)n2)cn1` [Example 327, 7-fluoro-2-({5-[5-(trifluoromethyl)-1,2,4-oxadiazol-3-yl]pyridin-2-yl}methyl)-3,4-dihydroisoquinolin-1(2H)-one] it was 640 nM.
In the case of `O=C1CCc2ncccc2N1Cc1ccc(-c2noc(C(F)(F)F)n2)cn1` [Example 328, 1-({5-[5-(trifluoromethyl)-1,2,4-oxadiazol-3-yl]pyridin-2-yl}methyl)-3,4-dihydro-1,5-naphthyridin-2(1H)-one] it was 580 nM; in that of `Fc1ccc2c(c1)N(Cc1ccc(-c3noc(C(F)(F)F)n3)cn1)CCO2` [Example 347, 6-fluoro-4-({5-[5-(trifluoromethyl)-1,2,4-oxadiazol-3-yl]pyridin-2-yl}methyl)-3,4-dihydro-2H-1,4-benzoxazine], 600 nM.
Turning to `CC1(Cc2ccc(-c3noc(C(F)(F)F)n3)cc2)C(=O)Nc2ccc(F)cc21` (stereo not drawn) [Example 348, 5-fluoro-3-methyl-3-{4-[5-(trifluoromethyl)-1,2,4-oxadiazol-3-yl]benzyl}-1,3-dihydro-2H-indol-2-one], the IC50 was 2400 nM.
The same measure for `FC(F)(F)c1nc(-c2ccc(CNc3cccc(-c4cnco4)c3)nc2)no1` [Example 360, 3-(1,3-oxazol-5-yl)-N-({5-[5-(trifluoromethyl)-1,2,4-oxadiazol-3-yl]pyridin-2-yl}methyl)aniline]: 7.6 nM.
In the case of `FC(F)(F)c1nc(-c2ccc(CNc3cccc(-n4cncn4)c3)nc2)no1` [Example 364, 3-(1H-1,2,4-triazol-1-yl)-N-({5-[5-(trifluoromethyl)-1,2,4-oxadiazol-3-yl]pyridin-2-yl}methyl)aniline] it was 60 nM.
In the case of `NC(=O)c1cccc(CCOc2cc(-c3noc(C(F)(F)F)n3)ccn2)c1` [Example 459, 3-[2-({4-[5-(trifluoromethyl)-1,2,4-oxadiazol-3-yl]pyridin-2-yl}oxy)ethyl]benzamide] it was 1800 nM.
Consider `O=c1ccc2ccccc2n1Cc1ccc(-c2noc(C(F)(F)F)n2)cn1` [Example 460, 1-({5-[5-(trifluoromethyl)-1,2,4-oxadiazol-3-yl]pyridin-2-yl}methyl)quinolin-2(1H)-one], for which the IC50 worked out at 99 nM.
As to `O=C1CSc2ccccc2N1Cc1ccc(-c2noc(C(F)(F)F)n2)cn1` [Example 463, 4-({5-[5-(trifluoromethyl)-1,2,4-oxadiazol-3-yl]pyridin-2-yl}methyl)-2H-1,4-benzothiazin-3(4H)-one], the IC50 came to 130 nM.
